Measurements reported in ChEMBL document CHEMBL1147001, “Synthesis and antibacterial activity of novel oxazolidinones bearing N-hydroxyacetamidine substituent” (2006).
Converted amounts (≈) assume the structure as drawn.

Experiments:
Type in all cases: functional
Staphylococcus aureus [1] = test: Antibacterial activity against methicillin-susceptible Staphylococcus aureus DRCC 035
Enterococcus faecalis [2] = test: Antibacterial activity against vancomycin-resistant Enterococcus faecalis DRCC 154
Enterococcus faecalis [3] = test: Antibacterial activity against vancomycin-susceptible Enterococcus faecalis DRCC 034
Enterococcus faecalis [4] = test: Antibacterial activity against vancomycin-resistant Enterococcus faecalis DRCC 153
Staphylococcus aureus [5] = test: Antibacterial activity against methicillin-resistant Staphylococcus aureus DRCC 019
Haemophilus influenzae = test: Antibacterial activity against beta lactamase negative Haemophilus influenzae DRCC 433
Staphylococcus aureus [6] = test: Antibacterial activity against methicillin-resistant Staphylococcus aureus DRCC 446
Moraxella catarrhalis = test: Antibacterial activity against beta lactamase negative Moraxella catarrhalis DRCC 300
Staphylococcus aureus [7] = test: Efficacy against po dosed mouse infected with Staphylococcus aureus ATCC 29213

C/C(S)=N/C[C@H]1CN(c2ccc(N3CCN(CC(=N)NO)CC3)c(F)c2)C(=O)O1
MIC (Staphylococcus aureus [1]): 2 µg/mL (≈ 4.71 µM) | MIC (Enterococcus faecalis [2]): 1 µg/mL (≈ 2.36 µM) | MIC (Enterococcus faecalis [3]): 1 µg/mL (≈ 2.36 µM) | MIC (Enterococcus faecalis [4]): 1 µg/mL (≈ 2.36 µM) | MIC (Staphylococcus aureus [5]): 1 µg/mL (≈ 2.36 µM) | MIC (Haemophilus influenzae): 4 µg/mL (≈ 9.42 µM) | MIC (Staphylococcus aureus [6]): 1 µg/mL (≈ 2.36 µM)

N/C(CN1CCN(c2ccc(N3C[C@H](CNC(=O)C(F)F)OC3=O)cc2F)CC1)=N\O
MIC (Staphylococcus aureus [1]): 4 µg/mL (≈ 9 µM) | MIC (Enterococcus faecalis [2]): 4 µg/mL (≈ 9 µM) | MIC (Moraxella catarrhalis): 8 µg/mL (≈ 18 µM) | MIC (Enterococcus faecalis [3]): 4 µg/mL (≈ 9 µM) | ED50 (Staphylococcus aureus [7]): 12.1 mg/kg/day | MIC (Enterococcus faecalis [4]): 2 µg/mL (≈ 4.5 µM) | MIC (Staphylococcus aureus [5]): 4 µg/mL (≈ 9 µM) | MIC (Haemophilus influenzae): 4 µg/mL (≈ 9 µM) | MIC (Staphylococcus aureus [6]): 4 µg/mL (≈ 9 µM)

COC(=O)NC[C@H]1CN(c2cc(F)c(N3CCN(CC(=N)NO)CC3)c(F)c2)C(=O)O1
MIC (Staphylococcus aureus [1]): 2 µg/mL (≈ 4.52 µM) | MIC (Enterococcus faecalis [2]): 2 µg/mL (≈ 4.52 µM) | MIC (Moraxella catarrhalis): 2 µg/mL (≈ 4.52 µM) | MIC (Enterococcus faecalis [3]): 1 µg/mL (≈ 2.26 µM) | ED50 (Staphylococcus aureus [7]): 32.2 mg/kg/day | MIC (Enterococcus faecalis [4]): 1 µg/mL (≈ 2.26 µM) | MIC (Staphylococcus aureus [5]): 1 µg/mL (≈ 2.26 µM) | MIC (Haemophilus influenzae): 8 µg/mL (≈ 18.1 µM) | MIC (Staphylococcus aureus [6]): 1 µg/mL (≈ 2.26 µM)

C/C(S)=N/C[C@H]1CN(c2cc(F)c(N3CCN(CC(=N)NO)CC3)c(F)c2)C(=O)O1
MIC (Staphylococcus aureus [1]): 1 µg/mL (≈ 2.26 µM) | MIC (Enterococcus faecalis [2]): 0.25 µg/mL (≈ 0.565 µM) | MIC (Moraxella catarrhalis): 0.5 µg/mL (≈ 1.13 µM) | MIC (Enterococcus faecalis [3]): 0.5 µg/mL (≈ 1.13 µM) | ED50 (Staphylococcus aureus [7]): 22.1 mg/kg/day | MIC (Enterococcus faecalis [4]): 0.5 µg/mL (≈ 1.13 µM) | MIC (Staphylococcus aureus [5]): 0.25 µg/mL (≈ 0.565 µM) | MIC (Haemophilus influenzae): 4 µg/mL (≈ 9.04 µM) | MIC (Staphylococcus aureus [6]): 0.25 µg/mL (≈ 0.565 µM)

CO/C(S)=N/C[C@H]1CN(c2ccc(N3CCN(CC(=N)NO)CC3)c(F)c2)C(=O)O1
MIC (Staphylococcus aureus [1]): 1 µg/mL (≈ 2.27 µM) | MIC (Enterococcus faecalis [2]): 0.5 µg/mL (≈ 1.14 µM) | MIC (Moraxella catarrhalis): 8 µg/mL (≈ 18.2 µM) | MIC (Enterococcus faecalis [3]): 0.5 µg/mL (≈ 1.14 µM) | ED50 (Staphylococcus aureus [7]): 21.2 mg/kg/day | MIC (Enterococcus faecalis [4]): 0.5 µg/mL (≈ 1.14 µM) | MIC (Staphylococcus aureus [5]): 0.5 µg/mL (≈ 1.14 µM) | MIC (Haemophilus influenzae): 8 µg/mL (≈ 18.2 µM) | MIC (Staphylococcus aureus [6]): 0.5 µg/mL (≈ 1.14 µM)

N/C(CN1CCN(c2ccc(N3C[C@H](COc4ccon4)OC3=O)cc2F)CC1)=N\O
MIC (Staphylococcus aureus [1]): 16 µg/mL (≈ 36.8 µM) | MIC (Enterococcus faecalis [2]): 16 µg/mL (≈ 36.8 µM) | MIC (Moraxella catarrhalis): 8 µg/mL (≈ 18.4 µM) | MIC (Enterococcus faecalis [3]): 16 µg/mL (≈ 36.8 µM) | MIC (Enterococcus faecalis [4]): 8 µg/mL (≈ 18.4 µM) | MIC (Staphylococcus aureus [5]): 4 µg/mL (≈ 9.21 µM) | MIC (Haemophilus influenzae): 256 µg/mL (≈ 589 µM) | MIC (Staphylococcus aureus [6]): 4 µg/mL (≈ 9.21 µM)

N/C(CN1CCN(c2c(F)cc(N3C[C@H](CNC(=O)C(F)F)OC3=O)cc2F)CC1)=N\O
MIC (Staphylococcus aureus [1]): 2 µg/mL (≈ 4.33 µM) | MIC (Enterococcus faecalis [2]): 1 µg/mL (≈ 2.16 µM) | MIC (Moraxella catarrhalis): 2 µg/mL (≈ 4.33 µM) | MIC (Enterococcus faecalis [3]): 1 µg/mL (≈ 2.16 µM) | ED50 (Staphylococcus aureus [7]): 18.3 mg/kg/day | MIC (Enterococcus faecalis [4]): 0.5 µg/mL (≈ 1.08 µM) | MIC (Staphylococcus aureus [5]): 1 µg/mL (≈ 2.16 µM) | MIC (Haemophilus influenzae): 4 µg/mL (≈ 8.65 µM) | MIC (Staphylococcus aureus [6]): 1 µg/mL (≈ 2.16 µM)

CC(=O)NC[C@H]1CN(c2ccc(N3CCN(CC(=N)NO)CC3)c(F)c2)C(=O)O1
MIC (Staphylococcus aureus [1]): 16 µg/mL (≈ 39.2 µM) | MIC (Enterococcus faecalis [2]): 8 µg/mL (≈ 19.6 µM) | MIC (Moraxella catarrhalis): 8 µg/mL (≈ 19.6 µM) | MIC (Enterococcus faecalis [3]): 8 µg/mL (≈ 19.6 µM) | MIC (Enterococcus faecalis [4]): 2 µg/mL (≈ 4.9 µM) | MIC (Staphylococcus aureus [5]): 4 µg/mL (≈ 9.79 µM) | MIC (Haemophilus influenzae): 8 µg/mL (≈ 19.6 µM) | MIC (Staphylococcus aureus [6]): 4 µg/mL (≈ 9.79 µM)

CO/C(S)=N/C[C@H]1CN(c2cc(F)c(N3CCN(CC(=N)NO)CC3)c(F)c2)C(=O)O1
MIC (Staphylococcus aureus [1]): 0.5 µg/mL (≈ 1.09 µM) | MIC (Enterococcus faecalis [2]): 0.25 µg/mL (≈ 0.545 µM) | MIC (Moraxella catarrhalis): 0.5 µg/mL (≈ 1.09 µM) | MIC (Enterococcus faecalis [3]): 0.25 µg/mL (≈ 0.545 µM) | ED50 (Staphylococcus aureus [7]): 32.2 mg/kg/day | MIC (Enterococcus faecalis [4]): 0.25 µg/mL (≈ 0.545 µM) | MIC (Staphylococcus aureus [5]): 0.25 µg/mL (≈ 0.545 µM) | MIC (Haemophilus influenzae): 4 µg/mL (≈ 8.72 µM) | MIC (Staphylococcus aureus [6]): 0.25 µg/mL (≈ 0.545 µM)

N/C(CN1CCN(c2c(F)cc(N3C[C@H](COc4ccon4)OC3=O)cc2F)CC1)=N\O
MIC (Staphylococcus aureus [1]): 4 µg/mL (≈ 8.84 µM) | MIC (Enterococcus faecalis [2]): 4 µg/mL (≈ 8.84 µM) | MIC (Moraxella catarrhalis): 16 µg/mL (≈ 35.4 µM) | MIC (Enterococcus faecalis [3]): 4 µg/mL (≈ 8.84 µM) | MIC (Enterococcus faecalis [4]): 2 µg/mL (≈ 4.42 µM) | MIC (Staphylococcus aureus [5]): 2 µg/mL (≈ 4.42 µM) | MIC (Haemophilus influenzae): > 32 µg/mL | MIC (Staphylococcus aureus [6]): 2 µg/mL (≈ 4.42 µM)

COC(=O)NC[C@H]1CN(c2ccc(N3CCN(CC(=N)NO)CC3)c(F)c2)C(=O)O1
MIC (Staphylococcus aureus [1]): 8 µg/mL (≈ 18.8 µM) | MIC (Enterococcus faecalis [2]): 16 µg/mL (≈ 37.7 µM) | MIC (Moraxella catarrhalis): > 16 µg/mL | MIC (Enterococcus faecalis [3]): 4 µg/mL (≈ 9.42 µM) | MIC (Enterococcus faecalis [4]): 4 µg/mL (≈ 9.42 µM) | MIC (Staphylococcus aureus [5]): 16 µg/mL (≈ 37.7 µM) | MIC (Haemophilus influenzae): 32 µg/mL (≈ 75.4 µM) | MIC (Staphylococcus aureus [6]): 16 µg/mL (≈ 37.7 µM)

CC(=O)NC[C@H]1CN(c2cc(F)c(N3CCN(CC(=N)NO)CC3)c(F)c2)C(=O)O1
MIC (Staphylococcus aureus [1]): 2 µg/mL (≈ 4.69 µM) | MIC (Enterococcus faecalis [2]): 1 µg/mL (≈ 2.35 µM) | MIC (Moraxella catarrhalis): 4 µg/mL (≈ 9.38 µM) | MIC (Enterococcus faecalis [3]): 1 µg/mL (≈ 2.35 µM) | MIC (Enterococcus faecalis [4]): 1 µg/mL (≈ 2.35 µM) | MIC (Staphylococcus aureus [5]): 1 µg/mL (≈ 2.35 µM) | MIC (Haemophilus influenzae): 4 µg/mL (≈ 9.38 µM) | MIC (Staphylococcus aureus [6]): 1 µg/mL (≈ 2.35 µM)

CC(=O)NC[C@H]1CN(c2ccc(N3CCOCC3)c(F)c2)C(=O)O1 [LINEZOLID]
MIC (Moraxella catarrhalis): 8 µg/mL (≈ 23.7 µM) | ED50 (Staphylococcus aureus [7]): 5.3 mg/kg/day | MIC (Staphylococcus aureus [5]): 1 µg/mL (≈ 2.96 µM) | MIC (Haemophilus influenzae): 8 µg/mL (≈ 23.7 µM)
